Experiments:
Type in all cases: functional
Details in all cases: read-out: ED50 (the source's name)
[1] = tested on: P388; assay: Cytotoxicity against mouse P388 cells
[2] = tested on: HT-29; assay: Cytotoxicity against human HT-29 cells
[3] = tested on: A549; assay: Cytotoxicity against human A549 cells
[4] = tested on: SK-MEL-28; assay: Cytotoxicity against human SK-MEL-28 cells

Measured: EC50

CC(C)=CCC[C@@H](C)[C@H]1C[C@@H]2OC(=O)C[C@@H]3C(=O)CC[C@@]1(C)[C@H]23 [3-EPI-APLYKURODINONE B]
2.5 µg/mL: all assays above
